Data published in article PMC8929364, “Metopimazine is primarily metabolized by a liver amidase in humans” (Pharmacology Research & Perspectives, 2021).

Legend:
[1] = tested on: human liver microsomal amidase; assay: Incubations with heat-treated HLM for microsomal hydrolase/amidase activity, with and without BNPP; assay type: in vitro ADME; settings: 10 µM MPZ, pH 7.4, 8.4 and 9.4, 60 min
Experimental: Prior to the reaction for amidase activity, the reaction mixture containing KPi buffer (pH 7.4, 8.4, or 9.4) and HLM was pre‐incubated at 50°C for 5 min to inactivate CYP and FMO activities in HLM. The mixture was placed on ice to cool down. An aliquot was taken out which was considered as t = 0 min incubation. Then 10 µM MPZ was added into the remaining mixture and incubated at 37°C on an orbital shaker for 60 min. A parallel set of incubations was conducted with 10 µM MPZ in the presence at 2 and 16 µM, of BNPP (a known inhibitor of amidase). All reactions were in triplicate. The total percentage of organic solvent in the incubation mixture was ≤0.1%. The reactions were terminated by the addition of chilled acetonitrile: methanol, 90:10, (v/v). The samples were vortex‐mixed and stored at ≤−70°C and were subjected analyzed by LC–MS/MS.

human D2 receptor = tested on: human D2 receptor; design: method as in earlier work; settings: cited from earlier work
rhFMO5 = biological target: T1, rhFMO5 (Homo sapiens, UniProt P49326); assay: Incubation of MPZ with recombinant FMO: FMO5; assay type: in vitro ADME; settings: 1 µM MPZ, pH 8.4
T1 construct: purchased Corning Inc
T1 sequence (P49326 1-533): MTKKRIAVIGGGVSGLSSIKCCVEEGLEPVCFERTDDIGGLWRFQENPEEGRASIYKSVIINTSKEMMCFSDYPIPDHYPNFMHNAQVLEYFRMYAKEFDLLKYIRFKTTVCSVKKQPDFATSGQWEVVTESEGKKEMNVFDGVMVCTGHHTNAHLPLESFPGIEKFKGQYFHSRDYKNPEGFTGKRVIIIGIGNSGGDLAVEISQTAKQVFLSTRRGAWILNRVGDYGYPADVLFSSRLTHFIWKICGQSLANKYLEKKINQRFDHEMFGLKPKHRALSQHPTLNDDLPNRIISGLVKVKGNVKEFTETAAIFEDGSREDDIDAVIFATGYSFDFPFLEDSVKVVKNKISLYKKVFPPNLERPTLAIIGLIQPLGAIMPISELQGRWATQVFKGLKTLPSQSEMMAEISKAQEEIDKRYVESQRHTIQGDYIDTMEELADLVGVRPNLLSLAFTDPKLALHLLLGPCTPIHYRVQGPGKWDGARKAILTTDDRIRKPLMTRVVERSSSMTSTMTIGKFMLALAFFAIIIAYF
Experimental: (§1) MPZ at 1.0 µM was incubated in triplicate with individual recombinant FMO (Supersomes™ for FMO 1, FMO3, and FMO5). Protein concentrations for all rFMO isoforms were 0.05 mg/ml. A positive control (benzydamine, 100 µM) was incubated for 20 min. The reaction mixture containing MPZ or FMO substrate, KPi buffer (pH 8.4), and FMO Supersomes™ was pre‐incubated at 37°C for 3–5 min. All other procedures were the same as described previously. The negative control reactions were incubated absence of NADPH.

rhFMO1 = biological target: T2, rhFMO1 (Homo sapiens, UniProt Q01740); assay: Incubation of MPZ with recombinant FMO: FMO1; assay type: in vitro ADME; settings: 1 µM MPZ, pH 8.4
T2 construct: purchased Corning Inc
T2 sequence (Q01740 1-532): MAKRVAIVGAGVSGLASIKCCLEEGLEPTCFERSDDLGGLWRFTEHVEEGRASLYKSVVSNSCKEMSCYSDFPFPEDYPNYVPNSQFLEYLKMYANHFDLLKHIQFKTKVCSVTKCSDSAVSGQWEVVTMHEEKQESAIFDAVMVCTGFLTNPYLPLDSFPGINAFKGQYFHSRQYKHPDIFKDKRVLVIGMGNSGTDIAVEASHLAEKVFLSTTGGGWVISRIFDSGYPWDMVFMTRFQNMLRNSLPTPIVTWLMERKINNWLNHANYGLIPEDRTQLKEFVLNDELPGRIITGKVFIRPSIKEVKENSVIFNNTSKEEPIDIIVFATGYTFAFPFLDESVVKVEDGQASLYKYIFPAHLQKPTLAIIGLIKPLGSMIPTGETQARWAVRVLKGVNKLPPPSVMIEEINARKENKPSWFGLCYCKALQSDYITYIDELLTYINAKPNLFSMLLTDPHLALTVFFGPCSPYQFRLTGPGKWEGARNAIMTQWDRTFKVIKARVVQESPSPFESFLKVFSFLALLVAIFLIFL
Experimental: as §1

[2] = Incubation of MPZ in human intestine S9; assay type: in vitro ADME; settings: 2.5 µM MPZ, human intestine S9 1 mg/ml, NADPH, 60 min
Experimental: (§2) An initial experiment was conducted with S9 fractions from liver and intestine to assess the role of liver and intestinal enzymes in the metabolism of MPZ. The reaction mixture contained 2.5 µM MPZ, pooled human liver or intestine S9 fraction (1 mg/ml S9 protein), 100 mM KPi buffer (pH 7.4). The reaction mixture was pre‐incubated for 3–5 min at 37°C in a humidified incubator filled with 5% CO2 followed by the addition of NADPH (1 mM) to initiate the reaction. The reaction was incubated for 0 and 60 min. The total percentage of organic solvent in the incubation mixture was ≤0.1%. The reactions were terminated by the addition of sample mixture of acetonitrile and ethanol (90:10, v/v). The positive control substrate, 7‐EC, was incubated in triplicate in an identical manner as MPZ for S9 fractions.
(§3) The degree of disappearance of each analyte was evaluated by comparing the PAR of analyte to IS or concentration in different sampling time points to the PAR of time zero, (t = 0, 100%). The percent of parent remaining values were calculated according to the following equation: %parentremaining=(meanconcentrationorPARateachsamplingtimepoint/meanconcentrationorPARoftimezero)×100

rhFMO3 = biological target: T3, rhFMO3 (Homo sapiens, UniProt P31513); assay: Incubation of MPZ with recombinant FMO: FMO3; assay type: in vitro ADME; settings: 1 µM MPZ, pH 8.4
T3 construct: purchased Corning Inc
T3 sequence (P31513 1-532): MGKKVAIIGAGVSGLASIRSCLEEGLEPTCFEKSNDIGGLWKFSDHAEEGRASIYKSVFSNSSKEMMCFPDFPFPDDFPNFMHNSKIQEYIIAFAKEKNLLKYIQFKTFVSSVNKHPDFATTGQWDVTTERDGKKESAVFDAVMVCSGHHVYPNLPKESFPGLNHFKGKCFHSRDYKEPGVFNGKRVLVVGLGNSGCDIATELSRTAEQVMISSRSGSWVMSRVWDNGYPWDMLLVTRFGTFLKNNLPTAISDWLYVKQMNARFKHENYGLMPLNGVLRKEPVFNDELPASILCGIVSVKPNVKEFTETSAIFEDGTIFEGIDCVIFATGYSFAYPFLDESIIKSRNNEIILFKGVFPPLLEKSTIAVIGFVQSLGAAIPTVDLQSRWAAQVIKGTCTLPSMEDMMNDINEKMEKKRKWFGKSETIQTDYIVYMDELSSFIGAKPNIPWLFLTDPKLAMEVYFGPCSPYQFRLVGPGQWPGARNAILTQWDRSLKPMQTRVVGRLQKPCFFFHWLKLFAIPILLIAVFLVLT
Experimental: as §1

[3] = Incubation of MPZ in human liver S9; assay type: in vitro ADME; settings: 2.5 µM MPZ, human liver S9 1 mg/ml, NADPH, 60 min
Experimental: as §2, §3

| SMILES | pH dependence of MPZA formation in HLM [1] | fold less potent at the human D2 receptor compared to the parent (human D2 receptor) | metabolism by rhFMO5 (rhFMO5) | metabolism by rhFMO1 (rhFMO1) | metabolism in human intestine S9 [2] | metabolism by rhFMO3 (rhFMO3) | percent of MPZ disappeared [3] |
| --- | --- | --- | --- | --- | --- | --- | --- |
| CS(=O)(=O)c1ccc2c(c1)N(CCCN1CCC(C(=O)O)CC1)c1ccccc1S2 [MPZA, metopimazine acid] | faster the higher the pH | about 200 fold | – | – | – | – | – |
| CS(=O)(=O)c1ccc2c(c1)N(CCCN1CCC(C(N)=O)CC1)c1ccccc1S2 [MPZ, metopimazine] | – | – | did not metabolize MPZ | did not metabolize MPZ | virtually no metabolism | did not metabolize MPZ | approximately 30% |
